Among the data in PubChem BioAssay (NCI) are GI50 and TGI values, retold here.

Molecules are shown by their SMILES. “And” between values parts separate entries of the source, which are not always exact repeats. Identical values can stand only once.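 Values below derive from 48-hour exposures of cells grown in 96-well plates, with endpoints linearly interpolated between the two concentrations bracketing the appropriate inhibition level. GI50 = concentration required for 50% inhibition of growth. TGI denotes the concentration required for complete inhibition of growth.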 Where only a bound is given, the exact number is not on record here.

What all share (assay): DTP human tumour cell line panel, 48 h
Assay [1] has as its system BT-549 breast.
The test system of assay [2] is COLO 205 colon.
Assay [3] relates to HCT-15 colon.
The subject of assay [4] is ACHN renal.
Assay [5] deals with SK-MEL-2 melanoma.
Assay [6] relates to NCI-H226 lung.
Assay [7] deals with SNB-75 CNS.
The test system of assay [8] is SN12C renal.
The test system of assay [9] is NCI-H460 lung.
Assay [10] has as its system IGROV1 ovarian.

As to `CCN(CC)CCNC(Cc1ccccc1)c1ccc(OCc2ccccc2)cc1` (stereo not given), the GI50 is 3.55 µM in [1]; 1.79 µM in assay [2]; 3.36 µM in assay [3]; 7.85 µM in [4]; 3.42 µM in [5]; 13.8 µM in assay [6]. Further, the GI50 is 4.29 µM in assay [7], 6.68 µM in [8], 3.56 µM in assay [9] and 4.43 µM in assay [10]. Moreover, the TGI in [1] turned out to be 18.7 µM; in [2] it was 3.4 µM; in [3] it was 13 µM; in assay [4] it was 21.6 µM; in [5], 9.74 µM; in assay [6], 34.8 µM. Moreover, the total growth inhibition concentration (TGI) turned out to be 18 µM in assay [7], 20.8 µM in assay [8], 12.9 µM in [9] and 17.1 µM in [10].
Consider `O=C(O)c1ccc(CN2CCC(CN[C@@H]3C[C@H]3c3ccccc3)CC2)cc1`, for which the GI50 in assay [1], in assay [2], in [3], in assay [4], in assay [5] and in assay [6] was above 100 µM in each case. Further, the GI50 in [7], in [8], in assay [9] and in assay [10] was above 100 µM throughout. Besides, the TGI in assay [1], in assay [2], in assay [3], in [4], in assay [5] and in [6] was above 100 µM in each case. Moreover, the TGI in assay [7], in [8], in assay [9] and in [10] was above 100 µM throughout.
In the case of `Nc1ncnc2c1ncn2C1C=C(CO)C(O)C1O` (stereo not given), the TGI in [1] was above 100 µM; in assay [2] it was 19.5 µM; in [3], above 53.7 µM; in [4], 66.9 µM; in [5], above 80.4 µM; in assay [6], above 100 µM. For the same molecule, the TGI in assay [7] was 48.9 µM; in assay [8], above 100 µM; in assay [9] it was 34.8 µM; in [10] it was above 54.3 µM.
Consider `COc1ccc(C(C#N)NC23CC4CC(CC(C4)C2)C3)cc1` (stereo not given), for which the TGI in assay [1], in [2], in [3], in assay [4], in assay [5] and in assay [6] was above 100 µM each time. The concentration for total growth inhibition (TGI) in assay [7], in assay [8], in assay [9] and in assay [10] was above 100 µM in each case.
As to `Cc1ccc(C)c(NC(=O)CC2Sc3ccccc3NC2=O)c1` (stereo not given), the GI50 was 19.2 µM and 39 µM in [1]; 38.3 µM in [4]; 15.9 µM and 37.2 µM in [6]; 19.5 µM and 44.7 µM in assay [8]; 33.6 µM and > 74.1 µM in assay [9]. The TGI in assay [1] is 82.4 µM and > 95.8 µM; in assay [2] it was above 100 µM; in assay [3] it was above 100 µM; in assay [4] it was above 86.5 µM; in assay [5] it was above 100 µM; in assay [6] it was 28.6 µM and 67.2 µM. Moreover, the TGI is 18.8 µM and 29.8 µM in assay [7]; 33.4 µM and > 88.1 µM in [8]; above 100 µM in [9]; 36.6 µM and > 76.3 µM in [10].
As to `C=C(C)C1CC2(C)C(C)CC(O)CC2C(OC(=O)C=C(C)C)C1O` (stereo not given), the concentration for total growth inhibition (TGI) in assay [1] is above 100 µM; in assay [2], 32.4 µM; in [3] it was above 100 µM; in [4], 52 µM; in [5] it was above 100 µM; in assay [6], 46.2 µM. For the same molecule, the TGI in assay [7] was 40.5 µM; in assay [8], above 100 µM; in [9], 57.2 µM; in assay [10] it was above 100 µM.
Regarding `O=C(O)CCCc1ccc2ccc3ccccc3c2c1`, the TGI in [1], in assay [2], in assay [3], in [4], in assay [5] and in [6] was above 100 µM each time. For the same molecule, the TGI is 87.4 µM in [7], above 100 µM in [8], above 100 µM in assay [9] and above 100 µM in assay [10].
For the molecule `COc1ccc2c(c1)C(=O)/C(=C/c1cccc(OCC(=O)c3ccccc3)c1)O2`, the GI50 is 3.63 µM in [1]; 1.9 µM in [2]; 2.42 µM in assay [3]; 1.79 µM in assay [4]; 16.7 µM in assay [5]; 15.9 µM in assay [6]. The GI50 in assay [7] is 10.7 µM; in [8], 6.15 µM; in assay [9], 14.4 µM; in assay [10] it was 3.66 µM. Besides, the TGI came to 13.1 µM in [1]; 3.57 µM in assay [2]; 6.83 µM in assay [3]; 3.38 µM in [4]; 30.5 µM in [5]; 43.5 µM in assay [6]. For the same molecule, the TGI in assay [7] is 22.9 µM; in [8], 25.6 µM; in assay [9], 36 µM; in assay [10], 13.3 µM.
For the molecule `O=C(O)CSCCc1ccccc1`, the TGI in assay [1], in assay [2], in [3], in assay [4], in assay [5] and in assay [6] was above 100 µM each time. In addition, the TGI in assay [7], in assay [8], in assay [9] and in [10] was above 100 µM throughout.
For `Cc1ccc(C2=C(c3ccc(C)cc3)C3(c4ccc(C)cc4)C4C(=O)OC(=O)C4C2(c2ccc(C)cc2)S3=O)cc1` (stereo not given), the GI50 in assay [1] is 23.9 µM; in [2], 51.2 µM; in [3], 33.5 µM; in assay [4], 15.8 µM; in assay [5], 16.2 µM; in [6] it was 11 µM. Also, the GI50 in assay [7] was 15.3 µM; in assay [8], 25.1 µM; in [9] it was 24.9 µM; in assay [10], 25.7 µM. Moreover, the TGI is above 100 µM in [1]; above 100 µM in assay [2]; above 100 µM in [3]; 83.3 µM in assay [4]; 78.8 µM in [5]; 48.3 µM in assay [6]. Besides, the concentration for total growth inhibition (TGI) is 36.8 µM in [7], 87.9 µM in assay [8], above 100 µM in assay [9] and above 100 µM in [10].

Usually GI50 stands for the concentration that inhibits growth by half. As usually defined, the TGI is the concentration at which net growth stops.
